Laboratory results taken from patent US20150105252A1, “SUBSTITUTED PYRAZOLES AS HERBICIDES” (E I DU PONT DE NEMOURS AND COMPANY, priority 2013, published 2015).

Columns and labels:
[1] = tested on: galium; assay: Test C preemergence; format: in vivo, Galium aparine
In short: (§1)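 Visual control ratings on a 0–100 scale (100 = complete control) made against untreated controls after 13 to 15 days in greenhouse. Compounds applied in surfactant-containing solvent mixture, either preemergence to loam/sand-sown seeds or postemergence to 1- to 4-leaf plants (2–18 cm) in peat medium.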

[2] = tested on: velvetleaf; assay: Test A postemergence; format: in vivo, Abutilon theophrasti
In short: (§2)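 Ratings express plant response from 0 (no effect) to 100 (complete control), judged visually against untreated controls after approximately 10 days in the greenhouse. Preemergence applications were made as directed soil sprays onto seeded loam–sand mix, and postemergence applications onto 2–10 cm plants at one- to two-leaf stage.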

[3] = tested on: barnyardgrass; assay: Test C preemergence; format: in vivo, Echinochloa crus-galli
In short: as §1

[4] = tested on: blackgrass; assay: Test C preemergence; format: in vivo, Alopecurus myosuroides
In short: as §1

[5] = tested on: crabgrass, large; assay: Test A postemergence; format: in vivo, Digitaria sanguinalis
In short: as §2

[6] = tested on: oilseed rape; assay: Test C preemergence; format: in vivo, Brassica napus
In short: as §1

[7] = tested on: pigweed; assay: Test C preemergence; format: in vivo, Amaranthus retroflexus
In short: as §1

[8] = tested on: ryegrass, Italian; assay: Test C preemergence; format: in vivo, Lolium multiflorum
In short: as §1

[9] = tested on: soybean; assay: Test C preemergence; format: in vivo, Glycine max
In short: as §1

[10] = tested on: corn; assay: Test A postemergence; format: in vivo, Zea mays
In short: as §2

[11] = tested on: wheat; assay: Test C preemergence; format: in vivo, Triticum aestivum
In short: as §1

[12] = tested on: corn; assay: Test C preemergence; format: in vivo, Zea mays
In short: as §1

[13] = tested on: velvetleaf; assay: Test C preemergence; format: in vivo, Abutilon theophrasti
In short: as §1

[14] = tested on: barnyardgrass; assay: Test A preemergence; format: in vivo, Echinochloa crus-galli; conditions: preemergence
In short: as §2

[15] = tested on: johnsongrass; assay: Test C preemergence; format: in vivo, Sorghum halepense
In short: as §1

[16] = preemergence, 31 g ai/ha, visual rating, scale 0 to 100 (0 no effect, 100 complete control), 13 to 15 days
[17] = preemergence, 62 g ai/ha, 13 to 15 days, scale 0 to 100, 0 = no effect, 100 = complete control
[18] = preemergence, 125 g ai/ha, scale 0 to 100, 0 is no effect, 100 is complete control
[19] = Postemergence, 500 g ai/ha, visual rating after approx. 10 days, 0 to 100 scale (0 no effect, 100 complete control)
[20] = postemergence, 125 g ai/ha, about 10 days, visual rating on 0 to 100 scale (0 no effect, 100 complete control)

What does the source list for CCc1cc(C(=O)NC(C)C)nn1Cc1ccnc(C(F)(F)F)c1 [Compound 103]?
Plant response rating (scale of 0 to 100), Galium ([1]; Preemergence, 250 g ai/ha): 100; Galium plant response rating [1, 16]: 100; Plant response rating, Galium [1, 17]: 100; Galium plant response rating [1, 18]: 100; Velvetleaf plant response rating [2, 19]: 80; Velvetleaf plant response rating [2, 20]: 70; Plant response rating (scale of 0 to 100), Barnyardgrass ([3]; Preemergence, 250 g ai/ha): 100; Barnyardgrass plant response rating ([3]; preemergence, 31 g ai/ha, scale 0 to 100 (0 no effect, 100 complete control), 13 to 15 days): 100; Plant response rating, Barnyardgrass [3, 17]: 100; Barnyardgrass plant response rating [3, 18]: 100; Plant response rating (scale of 0 to 100), Blackgrass ([4]; Preemergence, 250 g ai/ha): 100; Blackgrass plant response rating [4, 16]: 100; Plant response rating, Blackgrass [4, 17]: 100; Blackgrass plant response rating [4, 18]: 100; Crabgrass, Large plant response rating [5, 19]: 100; Crabgrass, Large plant response rating [5, 20]: 90; Plant response rating (scale of 0 to 100), Oilseed Rape ([6]; Preemergence, 250 g ai/ha): 100; Oilseed Rape plant response rating [6, 16]: 100; Plant response rating, Oilseed Rape [6, 17]: 100; Oilseed Rape plant response rating [6, 18]: 100; Plant response rating (scale of 0 to 100), Pigweed ([7]; Preemergence, 250 g ai/ha): 100; Pigweed plant response rating [7, 16]: 100; Plant response rating, Pigweed [7, 17]: 100; Pigweed plant response rating [7, 18]: 100; Plant response rating (scale of 0 to 100), Ryegrass, Italian ([8]; Preemergence, 250 g ai/ha): 98; Ryegrass, Italian plant response rating [8, 16]: 75; Plant response rating, Ryegrass, Italian [8, 17]: 95; Ryegrass, Italian plant response rating [8, 18]: 95; Plant response rating (scale of 0 to 100), Soybean ([9]; Preemergence, 250 g ai/ha): 100; Soybean plant response rating [9, 16]: 90; Plant response rating, Soybean [9, 17]: 100; Soybean plant response rating [9, 18]: 100; Corn plant response rating [10, 19]: 90; Corn plant response rating [10, 20]: 80; Plant response rating (scale of 0 to 100), Wheat ([11]; Preemergence, 250 g ai/ha): 98; Wheat plant response rating [11, 16]: 10; Plant response rating, Wheat [11, 17]: 90; Wheat plant response rating [11, 18]: 95; Plant response rating (scale of 0 to 100), Corn ([12]; Preemergence, 250 g ai/ha): 100; Corn plant response rating [12, 16]: 75; Plant response rating, Corn [12, 17]: 100; Corn plant response rating [12, 18]: 100; Plant response rating (scale of 0 to 100), Velvetleaf ([13]; Preemergence, 250 g ai/ha): 100; Velvetleaf plant response rating [13, 16]: 100; Plant response rating, Velvetleaf [13, 17]: 100; Velvetleaf plant response rating [13, 18]: 100; Barnyardgrass plant response rating ([14]; 125 g ai/ha, visual injury, 0 to 100 scale, approx. 10 days): 100; Barnyardgrass plant response rating ([14]; 500 g ai/ha, visual injury after approx. 10 days, 0 to 100 scale (0 no effect, 100 complete control)): 100; Plant response rating (scale of 0 to 100), Johnsongrass ([15]; Preemergence, 250 g ai/ha): 100; Johnsongrass plant response rating [15, 16]: 85; Plant response rating, Johnsongrass [15, 17]: 100; Johnsongrass plant response rating [15, 18]: 100
